Source: patent publication US8293756B2, “Pharmaceutical compositions comprising nilotinib hydrochloride monohydrate” (Novartis AG, priority 2006, dated 2012)
Counter-ions that a name gives are not always drawn.

Columns and labels:
[1] = Hygroscopic tendency; format: physicochemical
[2] = Solubility in aqueous media / water; format: physicochemical

SMILES | hygroscopic tendency [1] | solubility in aqueous media ([2]; aqueous media) | water solubility ([2]; water, background statement)
Cc1cn(-c2cc(NC(=O)c3ccc(C)c(Nc4nccc(-c5cccnc5)n4)c3)cc(C(F)(F)F)c2)cn1 [nilotinib hydrochloride monohydrate, 4-Methyl-N-[3-(4-methyl-1H-imidazol-1-yl) -5-(trifluromethyl)phenyl]-3-[(4-pyridine-3-ylpyrimidin-2-yl)amino]benzamide hydrochloride hydrate] | slight hygroscopic tendency | low solubility | –
Cc1cn(-c2cc(NC(=O)c3ccc(C)c(Nc4nccc(-c5cccnc5)n4)c3)cc(C(F)(F)F)c2)cn1 [Nilotinib, 4-Methyl-3-[[4-(3-pyridinyl)-2-pyrimidinyl]amino]-N-[5-(4-methyl-1H-imidazol-1-yl) -3-(trifluoromethyl)phenyl] benzamide] | – | – | poorly water soluble
